In patent publication US10766873B2, “Zuclopenthixol hydrochloride derivatives and Ebselen derivatives as ErbB2 inhibitors” (Centre National de la Recherche Scientifique (CNRS), priority 2016, dated 2020):

Columns and labels:
[1] = target: T1, FERM/ErbB2 interaction (Ezrin FERM domain / juxtamembrane ErbB2 peptide) (Homo sapiens, UniProt P04626); test: AlphaScreen competition assay, FERM/ErbB2 interaction; format: binding; details: 1 h
T1 construct: made in house
Excerpt: (§1) To validate that the Zuclopenthixol hydrochloride (ZU) and its derivatives interact with the juxtamembrane domain of ErbB2, we first analyzed in AlphaScreen® their efficiency to inhibit FERM/ErbB2 interaction in a dose-dependent manner and determined IC50 value. Furthermore, to test the selectivity of those compounds, we tested their ability to disrupt the interaction between the FERM domain and the known ERM binding motif contained in the juxtamembrane region of CD44 as a control.
AlphaScreen® technology was used to assess the interaction between the Ezrin binding motif (EBM) contained in the juxtamembrane portions of ErbB2 or CD44 with the Ezrin FERM domain. For this purpose the Ezrin FERM domain in fusion with Glutathione-S-Transferase (GST) has been coupled to GSH-coated acceptor beads. […] The AlphaScreen® reagents (Glutathione-coated Acceptor beads and streptavidin-coated Donor beads) were obtained from PerkinElmer.
The reaction was performed using white 384-well Optiplates (PerkinElmer, Whalham, Mass., USA) in 20 μl (total reaction volume) in a reaction buffer containing PBS, pH 7.4, 5 mM MgCl2 and 0.02% CHAPS. […] 10 μl of a mix solution containing 20 μg/ml Glutathione-coated Acceptor beads and 20 μg/ml streptavidin-coated Donor beads was then added to the wells and incubation was further proceeded for 40 min or overnight in the dark and at room temperature. Light signal was detected with the EnVision® multilabel plate reader (PerkinElmer). All experiments involving AlphaScreen® beads were performed under subdued lighting.

[2] = target: T2, FERM/CD44 interaction (Homo sapiens, UniProt P16070); test: AlphaScreen counter screen, FERM/CD44 interaction; format: binding; details: 1 h
T2 construct: the juxtamembrane region of CD44 (biotin-[…]); made in house
Excerpt: as §1
AlphaScreen® technology was used to assess the interaction between the Ezrin binding motif (EBM) contained in the juxtamembrane portions of ErbB2 or CD44 with the Ezrin FERM domain. For this purpose the Ezrin FERM domain in fusion with Glutathione-S-Transferase (GST) has been coupled to GSH-coated acceptor beads. Biotinylated ErbB2 peptide encoding the Ezrin binding motif (amino acid 674 to 689: biotin-[…], 26 aa) or the juxtamembrane region of CD44 (biotin-[…]), for the counter screen have been synthesized and coupled to streptavidin-covered donor beads. […]
The reaction was performed using white 384-well Optiplates (PerkinElmer, Whalham, Mass., USA) in 20 μl (total reaction volume) in a reaction buffer containing PBS, pH 7.4, 5 mM MgCl2 and 0.02% CHAPS. […] Light signal was detected with the EnVision® multilabel plate reader (PerkinElmer). […]

[3] = tested on: SKBR3; test: MTT cell proliferation, SKBR3; format: cell-based, human
Description: (§2) We then analyzed the ability of ZU and EB1 and their derivatives to decrease the ErbB2-dependent cell proliferation.
(§3) SKBR3, BT474, MCF-7, MDA-MB-231 and HBMEC cells were treated with the compounds as indicated, and cell proliferation was determined each day during 3 days using an MTT assay. Non treated cells were included as a negative control.
A solution of ZU in cis conformation was mixed to a solution of ZU in trans conformation (1:1) to obtain ZU in a 50/50 cis/trans conformation and their respective effects on ErbB2 activation and ErbB2-dependent cell proliferation were analyzed as previously by dot blot analysis using an anti-phosphotyrosine antibody (clone 4G10) and by MTT assays in the ErbB2-overexpressing breast cancer cell line SKBR3, BT474, or HBMEC as a control.

[4] = tested on: MDA-MB-231; test: MTT cell proliferation, MDA-MB-231; format: cell-based; details: 10 μM
Description: as §2, §3
The ErbB2-overexpressing gastric cancer cell line N87 and MDAMB-231, a non ErbB2-overexpressing breast cancer cell line were treated with 3, 5 or 7 μM of ZU and cell proliferation was determined each day during 3 days using an MTT assay. Non treated cells were included as a negative control.
The ErbB2-overexpressing ovarian cancer cell line SKOV3 and MDAMB-231, a non ErbB2-overexpressing breast cancer cell line were treated with 3, 5 or 7 μM of ZU and cell proliferation was determined each day during 3 days using an MTT assay. Non treated cells were included as a negative control.

[5] = tested on: BT474; test: Soft agar colony formation, BT474; format: cell-based, human; details: 5 or 10 μM, 6 weeks
Description: A bottom layer of 0.8% agarose in DMEM supplemented with 20% SVF and penicillin/streptomycin was added to 24 well plates before seeding 25.10^3 SKBR3 or BT474 cells/well in a 0.6% agarose top layer. Cells were left untreated or treated with 5 or 10 μM ZU or EB1 or 5 μM AG1478 (a non-specific ErbB2 kinase inhibitor) as a positive control. Treatments were renewed 3 times a week. After 6 weeks, the number of colonies and their size were quantified using image J software. The colony formation is illustrated for each condition. Data are presented as mean±SEM.

[6] = tested on: V777L ErbB2-transfected cells; test: MTT cell proliferation, V777L ErbB2-transfected HBMEC; format: cell-based; details: day 3
Description: The WT, V777L or V842I ErbB2-transfected cells were treated with 5 or 10 μM of ZU and cell proliferation was determined each day during 3 days using an MTT assay. Non transfected cells were included as a negative control.
The WT, V777L or V842I ErbB2-transfected cells were treated with 5 or 10 μM of EB1 and cell proliferation was determined each day during 3 days using an MTT assay. Non transfected cells were included as a negative control.

[7] = target: ErbB2 (Homo sapiens, UniProt P04626); test: ErbB2 phosphorylation in SKBR3 cells, dot blot (4G10); format: cell-based; parameters: endogenous in cells; host or cells: SKBR3; details: SKBR3, 24 h
Description: The ability of ZU and EB1 and their derivatives to inhibit ErbB2 activity in cellulo on a commonly used ErbB2-overexpressing breast cancer cell line SKBR3 was analyzed. SKBR3 were treated 24 h with increasing concentrations of the compounds (0.625-80 μM) and ErbB2 phosphorylation was addressed by dot blot analysis using an anti-phosphotyrosine antibody (clone 4G10). Quantifications show the result of two independent experiments.

Chain of ErbB2 (P04626 23-1255): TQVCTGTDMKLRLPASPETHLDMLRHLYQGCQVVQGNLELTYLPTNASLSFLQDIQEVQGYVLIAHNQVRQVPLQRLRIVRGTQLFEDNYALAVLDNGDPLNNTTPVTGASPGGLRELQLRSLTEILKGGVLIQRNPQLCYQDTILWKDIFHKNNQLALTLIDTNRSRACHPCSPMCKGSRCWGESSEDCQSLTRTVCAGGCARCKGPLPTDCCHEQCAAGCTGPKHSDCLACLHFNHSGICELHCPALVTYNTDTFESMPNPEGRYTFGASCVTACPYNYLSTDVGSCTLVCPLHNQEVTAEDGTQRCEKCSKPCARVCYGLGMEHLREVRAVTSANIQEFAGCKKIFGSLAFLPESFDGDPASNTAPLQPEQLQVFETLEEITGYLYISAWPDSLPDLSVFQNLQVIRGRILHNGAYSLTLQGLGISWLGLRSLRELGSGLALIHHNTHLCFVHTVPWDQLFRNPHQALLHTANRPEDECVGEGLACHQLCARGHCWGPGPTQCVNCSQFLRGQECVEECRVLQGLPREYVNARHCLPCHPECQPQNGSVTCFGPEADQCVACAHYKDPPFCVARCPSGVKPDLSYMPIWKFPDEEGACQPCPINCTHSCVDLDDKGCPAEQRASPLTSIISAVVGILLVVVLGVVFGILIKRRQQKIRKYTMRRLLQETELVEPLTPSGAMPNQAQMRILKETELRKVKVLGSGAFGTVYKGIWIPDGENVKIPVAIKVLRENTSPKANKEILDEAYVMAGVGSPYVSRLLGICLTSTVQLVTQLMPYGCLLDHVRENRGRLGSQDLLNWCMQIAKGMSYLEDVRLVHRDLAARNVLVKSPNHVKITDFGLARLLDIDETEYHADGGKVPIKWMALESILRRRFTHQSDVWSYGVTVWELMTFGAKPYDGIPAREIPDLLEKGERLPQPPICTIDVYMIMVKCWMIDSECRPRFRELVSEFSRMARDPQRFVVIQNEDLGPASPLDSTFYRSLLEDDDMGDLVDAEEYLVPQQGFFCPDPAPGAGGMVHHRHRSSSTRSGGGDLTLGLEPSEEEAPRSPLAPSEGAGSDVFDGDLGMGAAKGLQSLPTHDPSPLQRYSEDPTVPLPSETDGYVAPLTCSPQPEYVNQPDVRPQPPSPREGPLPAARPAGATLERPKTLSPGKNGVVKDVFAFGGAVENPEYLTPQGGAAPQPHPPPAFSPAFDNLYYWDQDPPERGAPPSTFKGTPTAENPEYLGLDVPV

SMILES: O=C1c2ccccc2[Se](=O)N1c1ccccc1 (stereo not shown) [EB1, Ebselen oxide]
- inhibition of FERM/ErbB2 interaction [1]: 43%
- effect on FERM/CD44 interaction [2]: without significantly altering FERM/CD44 interaction at low doses
- IC50 ([3]; Homo sapiens, SK-BR-3): 7.5 µM
- EC50 ([3]; Homo sapiens, SK-BR-3, 72 h, day 3, read-out: Cell proliferation at d 3 SKBR3 EC50): 7.4 µM
- Cell proliferation at d 3 SKBR3 Max inhibition, % ([3]; day 3): 96.7%
- effect on MDA-MB-231 proliferation (in words) [4]: without any effect
- anchorage-independent growth of BT474 (in words) [5]: inhibited the anchorage-independent growth
- decrease of the proliferation of V777L transfected HBMEC ([6]; 5 μM): 70%
- decrease of the proliferation of V777L transfected HBMEC ([6]; 10 μM): 85%
- Emax ([7]; SK-BR-3, 0.625-80 μM, read-out: ErbB2 activation 24 h Max inhibition, %): 66.9%
- maximum inhibition of ErbB2 phosphorylation [7]: 70%
- EC50 ([7]; read-out: ErbB2 activation 24 h EC50): 23.4 µM
- IC50 ([7]; read-out: IC50 ErbB2 phosphorylation): 20 µM
